# Values of other authors as cited in patent US11554095B1, “Mitomycin-C bladder instillation syringe kit” (Edge Pharma, LLC, priority 2019, dated 2023).
# How the values were obtained:
# [1] = urine
smiles,measurement,setting,value
"CO[C@@]12[C@H](COC(N)=O)C3=C(C(=O)C(C)=C(N)C3=O)N1C[C@@H]1N[C@@H]12 [MMC, Mitomycin-C]",pH of solution in water,5 mg/mL solution in water,6.0-7.5
same,pH of saturated solution,saturated solution,5.0-9.0
same,decrease in MMC concentrations,"[1]; pH 5, after 2 hours",44%
same,loss of MMC,"[1]; pH 7, after 2 hours",less than 4%
